Assays:
Assay type in all cases: cell-based
[1] = test system: MKN-45 cells; experiment: Cancer cell proliferation inhibition (Cell Counting Kit-8), gastric cancer cell line; conditions: 1000 nM, cultured seven to 11 days
Source text: (§1) Among solid cancer cells, in G401 cells in which expression of SMARCB1, which is a member of switch/sucrosenon-fermenting (SWI/SNF), is defective as a cell line of a rhabdoid tumor in which a therapeutic effect may be expected through dual inhibition of EZH1/2, and MKN-45 cells in which expression of ARID1A, which is a member of SWI/SNF, is defective as a gastric cancer cell line, a proliferation inhibitory ability of the 1,3-benzodioxole derivative compounds represented by chemical formula I of the present invention was evaluated.
(§2) Each cell line (G401 cell, MKN-45 cell, Lovo cell, SW-13 cell, MIA-PaCa-2, NCI-H1299) of Table 2 below was cultured using RPMI1640, McCoy's 5a, L-15 or DMEM containing 10% fetal bovine serum, and the cells were seeded into wells of a 96-well culture dish at 100 to 1,000 cells each, and a test substance 1000 nM was cultured for seven to 11 days after drug treatment. After the culture, the cells were measured according to a manufacturer's instructions using Cell Counting Kit-8, and a cell proliferation inhibitory effect (% inhibition rate) of the test substance was obtained.
(§3) The cell proliferation inhibitory effect (% inhibition rate) of the test substance was calculated using a following equation. % inhibition rate = {1−(testgroup/controlgroup)} X 100 [formula]

[2] = test system: SW-13 cells; experiment: Cancer cell proliferation inhibition (Cell Counting Kit-8), adrenal cancer cell line; conditions: 1000 nM, cultured seven to 11 days
Description: (§4) In addition, as one example of solid cancer in which an overexpression of EZH2 and a consequent disease association therebetween is reported, a proliferation inhibitory activity of the 1,3-benzodioxole derivative compounds represented by chemical formula I of the present invention was evaluated in Lovo cells as a colorectal cancer cell line, SW-13 cells as an adrenal cancer cell line, MIA-PaCa-2 cells as a pancreatic cancer cell line, and NCI-H1299 cells as a lung cancer cell line.
as §2, §3

[3] = test system: NCI-H1299 cells; experiment: Cancer cell proliferation inhibition (Cell Counting Kit-8), lung cancer cell line; conditions: 1000 nM, cultured seven to 11 days
Description: as §4, §2, §3

[4] = test system: G401 cells; experiment: Cancer cell proliferation inhibition (Cell Counting Kit-8), rhabdoid tumor cell line; conditions: 1000 nM, cultured seven to 11 days; 1 µM
Source text: as §1, §2, §3

[5] = test system: Lovo cells; experiment: Cancer cell proliferation inhibition (Cell Counting Kit-8), colorectal cancer cell line; conditions: 1000 nM, cultured seven to 11 days
Description: as §4, §2, §3

[6] = test system: MIA-PaCa-2 cells; experiment: Cancer cell proliferation inhibition (Cell Counting Kit-8), pancreatic cancer cell line; conditions: 1000 nM, cultured seven to 11 days
Description: as §4, §2, §3

Compound: CSc1cc(C)[nH]c(=O)c1CNC(=O)c1cc(-c2ccc(N3C[C@@H](C)O[C@@H](C)C3)nc2)c2c(c1C)OC(C)(C1CCN(CC(F)(F)F)CC1)O2 (single isomer, unassigned) [Compound 45]
- % inhibition rate MKN -45 ([1]; 1 µM): + (+: ≤30%)
- % inhibition rate SW-13 [2]: ++ (++: more than 30% and less than 70%)
- % inhibition rate NCI-H129 9 [3]: ++ (++: more than 30% and less than 70%)
- % inhibition rate G401 [4]: + (+: ≤30%)
- % inhibition rate LoVo ([5]; 1 µM): ++ (++: more than 30% and less than 70%)
- % inhibition rate MIA-Paca2 [6]: + (+: ≤30%)

Compound: CSc1cc(C)[nH]c(=O)c1CNC(=O)c1cc(-c2ccc(N3C[C@@H](C)O[C@@H](C)C3)nc2)c2c(c1C)OC(C)(C1CCN(CC(F)F)CC1)O2 (single isomer, unassigned) [Compound 48]
- % inhibition rate MKN -45 ([1]; 1 µM): + (+: ≤30%)
- % inhibition rate SW-13 ([2]; 1 µM): + (+: ≤30%)
- % inhibition rate NCI-H129 9 [3]: ++ (++: more than 30% and less than 70%)
- % inhibition rate G401 [4]: + (+: ≤30%)
- % inhibition rate LoVo [5]: +++ (+++: ≥70%)
- % inhibition rate MIA-Paca2 [6]: + (+: ≤30%)

Compound: CCN1CCC(C2(C)Oc3c(-c4ccc(N5C[C@@H](C)O[C@@H](C)C5)nc4)cc(C(=O)NCc4c(SC)cc(C)[nH]c4=O)c(C)c3O2)CC1 (single isomer, unassigned) [Compound 50]
- % inhibition rate MKN -45 [1]: + (+: ≤30%)
- % inhibition rate SW-13 ([2]; 1 µM): + (+: ≤30%)
- % inhibition rate NCI-H129 9 [3]: ++ (++: more than 30% and less than 70%)
- % inhibition rate G401 [4]: + (+: ≤30%)
- % inhibition rate LoVo ([5]; 1 µM): + (+: ≤30%)
- % inhibition rate MIA-Paca2 [6]: + (+: ≤30%)

Compound: CSc1cc(C)[nH]c(=O)c1CNC(=O)c1cc(-c2ccc(N3C[C@@H](C)O[C@@H](C)C3)nc2)c2c(c1C)OC(C)(C1CCN(C(C)C)CC1)O2 (single isomer, unassigned) [Compound 52]
- % inhibition rate MKN -45 [1]: + (+: ≤30%)
- % inhibition rate SW-13 ([2]; 1 µM): + (+: ≤30%)
- % inhibition rate NCI-H129 9 ([3]; 1 µM): + (+: ≤30%)
- % inhibition rate G401 [4]: + (+: ≤30%)
- % inhibition rate LoVo ([5]; 1 µM): + (+: ≤30%)
- % inhibition rate MIA-Paca2 [6]: + (+: ≤30%)

Compound: CSc1cc(C)[nH]c(=O)c1CNC(=O)c1cc(-c2ccc(N3C[C@@H](C)O[C@@H](C)C3)nc2)c2c(c1C)OC(C)(C1CCN(C3CCCCC3)CC1)O2 (single isomer, unassigned) [Compound 54]
- % inhibition rate MKN -45 [1]: + (+: ≤30%)
- % inhibition rate SW-13 [2]: ++ (++: more than 30% and less than 70%)
- % inhibition rate NCI-H129 9 ([3]; 1 µM): + (+: ≤30%)
- % inhibition rate G401 [4]: ++ (++: more than 30% and less than 70%)
- % inhibition rate LoVo ([5]; 1 µM): ++ (++: more than 30% and less than 70%)
- % inhibition rate MIA-Paca2 [6]: + (+: ≤30%)

Compound: CSc1cc(C)[nH]c(=O)c1CNC(=O)c1cc(-c2ccc(N3C[C@@H](C)O[C@@H](C)C3)nc2)c2c(c1C)OC(C)(C1CCN(CCc3ccccc3)CC1)O2 (single isomer, unassigned) [Compound 56]
- % inhibition rate MKN -45 ([1]; 1 µM): + (+: ≤30%)
- % inhibition rate SW-13 ([2]; 1 µM): + (+: ≤30%)
- % inhibition rate NCI-H129 9 ([3]; 1 µM): + (+: ≤30%)
- % inhibition rate G401 [4]: ++ (++: more than 30% and less than 70%)
- % inhibition rate LoVo [5]: +++ (+++: ≥70%)
- % inhibition rate MIA-Paca2 [6]: + (+: ≤30%)

Compound: CSc1cc(C)[nH]c(=O)c1CNC(=O)c1cc(-c2ccc(N3C[C@@H](C)O[C@@H](C)C3)nc2)c2c(c1C)OC(C)(C1CCN(CCCC(F)(F)F)CC1)O2 (single isomer, unassigned) [Compound 58]
- % inhibition rate MKN -45 ([1]; 1 µM): + (+: ≤30%)
- % inhibition rate SW-13 ([2]; 1 µM): + (+: ≤30%)
- % inhibition rate NCI-H129 9 ([3]; 1 µM): + (+: ≤30%)
- % inhibition rate G401 [4]: + (+: ≤30%)
- % inhibition rate LoVo ([5]; 1 µM): ++ (++: more than 30% and less than 70%)
- % inhibition rate MIA-Paca2 ([6]; 1 µM): + (+: ≤30%)

Compound: CSc1cc(C)[nH]c(=O)c1CNC(=O)c1cc(-c2ccc(N3C[C@@H](C)O[C@@H](C)C3)nc2)c2c(c1C)OC(C)(C1CCN(C(=O)C(F)(F)F)CC1)O2 (single isomer, unassigned) [Compound 60]
- % inhibition rate MKN -45 ([1]; 1 µM): + (+: ≤30%)
- % inhibition rate SW-13 ([2]; 1 µM): + (+: ≤30%)
- % inhibition rate NCI-H129 9 ([3]; 1 µM): + (+: ≤30%)
- % inhibition rate G401 [4]: + (+: ≤30%)
- % inhibition rate LoVo [5]: +++ (+++: ≥70%)
- % inhibition rate MIA-Paca2 [6]: + (+: ≤30%)

Compound: CSc1cc(C)[nH]c(=O)c1CNC(=O)c1cc(-c2ccc(N3CCOCC3)nc2)c2c(c1C)OC(C)(C1CCN(CC(F)(F)F)CC1)O2 (single isomer, unassigned) [Compound 63, 2,4-dimethyl-N-((6-methyl-4-(methylthio)-2-oxo-1,2-dihydropyridin-3-yl)methyl)-7-(6-morpholinopyridin-3-yl)-2-(1-(2,2,2-trifluoro)piperidin-4-yl)benzo[d][1,3]dioxole-5-carboxamide]
- % inhibition rate MKN -45 [1]: ++ (++: more than 30% and less than 70%)
- % inhibition rate SW-13 ([2]; 1 µM): + (+: ≤30%)
- % inhibition rate NCI-H129 9 ([3]; 1 µM): + (+: ≤30%)
- % inhibition rate G401 [4]: + (+: ≤30%)
- % inhibition rate LoVo ([5]; 1 µM): ++ (++: more than 30% and less than 70%)
- % inhibition rate MIA-Paca2 [6]: + (+: ≤30%)

Compound: CSc1cc(C)[nH]c(=O)c1CNC(=O)c1cc(-c2ccc(N3CCOCC3)nc2)c2c(c1C)OC(C)(C1CCN(CC(F)F)CC1)O2 (single isomer, unassigned) [Compound 65, 2-(1-(2,2-difluoroethyl)piperidin-4-yl)-2,4-dimethyl-N-((6-methyl-4-(methylthio)-2-oxo-1,2-dihydropyridin-3-yl)methyl)-7-(6-morpholinopyridin-3-yl)benzo[d][1,3]dioxole-5-carboxamide]
- % inhibition rate MKN -45 [1]: ++ (++: more than 30% and less than 70%)
- % inhibition rate SW-13 ([2]; 1 µM): + (+: ≤30%)
- % inhibition rate NCI-H129 9 [3]: + (+: ≤30%)
- % inhibition rate G401 [4]: + (+: ≤30%)
- % inhibition rate LoVo ([5]; 1 µM): ++ (++: more than 30% and less than 70%)
- % inhibition rate MIA-Paca2 [6]: + (+: ≤30%)

Compound: CCN1CCC(C2(C)Oc3c(-c4ccc(N5CCOCC5)nc4)cc(C(=O)NCc4c(SC)cc(C)[nH]c4=O)c(C)c3O2)CC1 (single isomer, unassigned) [Compound 67, 2-(1-ethylpiperidin-4-yl)-2,4-dimethyl-N-((6-methyl-4-(methylthio)-2-oxo-1,2-dihydropyridin-3-yl)methyl)-7-(6-morpholinopyridin-3-yl)benzo[d][1,3]dioxole-5-carboxamide]
- % inhibition rate MKN -45 ([1]; 1 µM): + (+: ≤30%)
- % inhibition rate SW-13 [2]: + (+: ≤30%)
- % inhibition rate NCI-H129 9 [3]: + (+: ≤30%)
- % inhibition rate G401 [4]: + (+: ≤30%)
- % inhibition rate LoVo ([5]; 1 µM): + (+: ≤30%)
- % inhibition rate MIA-Paca2 [6]: + (+: ≤30%)

Compound: CSc1cc(C)[nH]c(=O)c1CNC(=O)c1cc(-c2cnc(N3CCOCC3)nc2)c2c(c1C)OC(C)(C1CCN(CC(F)(F)F)CC1)O2 (single isomer, unassigned) [Compound 70, 2,4-dimethyl-N-((6-methyl-4-(methylthio)-2-oxo-1,2-dihydropyridin-3-yl)methyl)-7-(2-morpholinopyrimidine-5-yl)-2-(1-(2,2,2-trifluoro)piperidin-4-yl)benzo[d][1,3]dioxole-5-carboxamide]
- % inhibition rate MKN -45 [1]: ++ (++: more than 30% and less than 70%)
- % inhibition rate SW-13 ([2]; 1 µM): + (+: ≤30%)
- % inhibition rate NCI-H129 9 [3]: + (+: ≤30%)
- % inhibition rate G401 [4]: + (+: ≤30%)
- % inhibition rate LoVo [5]: +++ (+++: ≥70%)
- % inhibition rate MIA-Paca2 [6]: + (+: ≤30%)
